Common to all, as to assay type: cell-based
The test system of one assay is LOXL1. The assay can be described thus: Immunofluorescence of LOXL1 protein expression in human dermal fibroblasts. As to conditions: 48 hours, HDFa. How it is done:
(§1) In this experiment the number of times that the expression of the proteins fibulin-5 and LOXL1 in human dermal fibroblasts is increased with regard to the basal levels in untreated cells (negative control) when treating the cells with 0.5 mg/ml of the product Ac-L-Asp-L-Val-L-Lys-L-Tyr-OH and it is compared with the effect of Interleukin-1β (IL-1β) at 20 ng/ml and TGF-β at 5 ng/ml (positive controls), which increase an average of 1.5 times and 2 times, respectively, the expression of these proteins, in the same conditions.
Adult human dermal fibroblasts were seeded (HDFa) (2.5×10^3 cells/well) in a 96-well transparent plate, treated with polylysine, and were incubated in complete medium 106 for 72 hours at 37° C. in an atmosphere with 5% CO2. After the incubation, the cells were treated with the different compounds in complete medium 106 for 48 hours at 37° C. in an atmosphere with 5% CO2. As positive controls of increase of the expression of the proteins fibulin-5 and LOXL1, 5 ng/ml of TGF-β and 20 ng/ml of IL-1β were used and as a negative control untreated cells were used, just with complete medium 106. The incubations and the treatments were carried out in quadruplicate for each condition. After the treatment, the levels of expression of both proteins were quantified relatively by using specific fluorescent antibodies, photographic recording by microscopy and subsequent quantification of the fluorescent signal using image processing software, the number of total cells by fluorescent staining of the nuclei (DAPI) and subsequent quantification in the same images. […] 16 hours later all the samples were stained with DAPI (4′,6-Diamidino-2-Phenylindole), fluorescent marker for the staining of nuclei, and the photographic recording was carried out by fluorescence microscopy in a Leica microscope. 2-4 images were taken per condition and per protein and the fluorescent signals were quantified (IOD) corresponding to each protein and the nuclei by means of image analysis software. […]

In assay [1] the test system is human fibulin-5 gene promoter. The assay is described as follows: Luminescence assay of human fibulin-5 gene promoter activation (Firefly luciferase). As to conditions: positive control, 10 ng/mL. As for the experimental part: (§2) The effect of the compounds of the invention on the activity of the fibulin-5 and LOXL1 promoters was studied and compared to the levels of basal expression of the untreated cells (negative control) and with the effect of Interleukin-1β (IL-1β) in the same conditions.
(§3) Cells from an epithelial cell line doubly transfected with fibulin-5 and LOXL1 human promoters in which the luciferase gene is under the regulatory control of said promoters (4×10^4 cells/well) were seeded in a white plate and in a 96-well transparent plate, both treated with polylysine, and were incubated in Dulbecco's Modified Eagle Medium (DMEM-Glutamax™), with 10% of FBS, 1% Penicillin-Streptomycin (P/S), 1 mg/ml of Geneticin® (G418) and […] at 37° C. in at atmosphere with 5% CO2. After the incubation, the cells were incubated for 6 hours at 37° C. in at atmosphere with 5% CO2 with DMEM without serum. Then, this medium was removed and the cells were treated with different compounds at 0.1 mg/ml, 0.5 mg/ml, 1 mg/ml or 2 mg/mL in DMEM/1% FBS for 16-24 hours. As a positive control to activate the fibulin-5 and LOXL1 promoters 10 ng/ml of IL-1β were used and as a negative control untreated cells were used, just with DMEM/1% FBS. The incubations and treatments were carried out in parallel in the white plate and the transparent plate and in triplicate for each condition. After the treatment, the relative light units per second were determined (RLU/s) in the white plate by means of consecutive quantification of the activities of Firefly luciferase (fibulin-5 promoter) and Renilla luciferase (LOXL1 promoter), and the number of total cells/well in the transparent plate by means of staining with Crystal Violet (CV). To determine the Firefly and Renilla luciferase activities the Dual-Glo Luciferase Assay System kit by Promega was used. The cells were briefly lysed and the Firefly luciferase substrate was added. After incubating for 10 min at 25° C., the RLU/s were quantified by luminescence reader (Lumistar-BMG). Then the Firefly signal was extinguished and the Renilla luciferase substrate was added. After incubating for 5 min at 25° C., the RLU/s were quantified by the same luminescence reader. With regard to the determination of the total number of cells by Crystal Violet, the CV dyes the DNA of the cells and the quantity of dye taken by the cells can be measured in an absorbency reader at 630 nm (Multiskan Ascent). The color obtained is directly proportional to the total number of cells per well. The cells were briefly incubated with 0.05% CV plus 4% Formalin for 20 minutes and after several washes with Milli-Q water, the cells were left to dry for 1-2 hours and then 0.1 M of HCl was added for its immediate reading. The RLU/s of the luciferases corresponding to each promoter were normalized by the average of the total number of cells per condition. Three independent assays with 3 measurements per assay were carried out for Ac-L-Asp-L-Val-L-Lys-L-Tyr-OH at 0.1 mg/mL and 1 mg/mL. 1 assay with 3 measurements was carried out for the other compounds and concentrations.
(§4) The increase in the activity of the promoters with regard to the levels of expression of the negative control was determined.

For assay [2], the system named is human LOXL1 gene promoter. The assay can be described thus: Luminescence assay of human LOXL1 gene promoter activation (Renilla luciferase). As to conditions: positive control, 10 ng/mL. How it is done:
as §2, §3, §4

In the next assay the test system is fibulin-5. The assay is described as follows: Immunofluorescence of fibulin-5 protein expression in human dermal fibroblasts. As to conditions: for Increase in the expression of the protein fibulin-5 with regard to the negative control: 48 hours, HDFa; for Average increase of the expression of the proteins fibulin-5 and LOXL1: positive control, average for both proteins. As for the experimental part:
as §1
Adult human dermal fibroblasts were seeded (HDFa) (2.5×10^3 cells/well) in a 96-well transparent plate, treated with polylysine, and were incubated in complete medium 106 for 72 hours at 37° C. in an atmosphere with 5% CO2. After the incubation, the cells were treated with the different compounds in complete medium 106 for 48 hours at 37° C. in an atmosphere with 5% CO2. As positive controls of increase of the expression of the proteins fibulin-5 and LOXL1, 5 ng/ml of TGF-β and 20 ng/ml of IL-1β were used and as a negative control untreated cells were used, just with complete medium 106. The incubations and the treatments were carried out in quadruplicate for each condition. After the treatment, the levels of expression of both proteins were quantified relatively by using specific fluorescent antibodies, photographic recording by microscopy and subsequent quantification of the fluorescent signal using image processing software, the number of total cells by fluorescent staining of the nuclei (DAPI) and subsequent quantification in the same images. For the determination of the expression of the proteins fibulin-5 and LOXL1 the cells were washed with PBS 48 hours after the treatments and were fixed with paraformaldehyde. Next, duplicates of each treatment were used to mark separately the fibulin-5 and LOXL1 proteins. For each of the proteins a specific primary monoclonal antibody was used (Abcam). After the primary incubation, the cells were washed with PBS and the secondary marking was carried out with specific fluorescent polyclonal antibodies for each primary antibody. For fibulin-5 an Alexa Fluor® 594 (red) secondary antibody was used and for LOXL1 an Alexa Fluor® 488 (green) secondary antibody was used. 16 hours later all the samples were stained with DAPI (4′,6-Diamidino-2-Phenylindole), fluorescent marker for the staining of nuclei, and the photographic recording was carried out by fluorescence microscopy in a Leica microscope. 2-4 images were taken per condition and per protein and the fluorescent signals were quantified (IOD) corresponding to each protein and the nuclei by means of image analysis software. The fibulin-5 and LOXL1 signals were normalized according to the number of total nuclei for each image. 3 independent assays were carried out.

For another assay, the system named is elastin. The assay can be described thus: Elastin synthesis in human dermal fibroblasts (Fastin Elastin Assay). As to conditions: positive control, 10 ng/mL, 48 hours, vs negative control. How it is done: Stimulation of elastin synthesis induced by Ac-L-Asp-L-Val-L-Lys-L-Tyr-OH was evaluated by means of a quantitative method of staining, Fastin Elastin Assay (Tebu-Bio). Human dermal fibroblasts were trypsinized and seeded at a density of 7×10^4 cells/well in 6-well plates. After 72 hours of incubation at 37° C., 5% CO2, with a humidified atmosphere, a new medium was added with 0.01 μg/mL Ac-L-Asp-L-Val-L-Lys-L-Tyr-OH. Untreated cells were used as negative controls and cells treated with TGF-1β (Peprotech) were used as positive controls. The cells were incubated for an additional 48 hours at 37° C., 5% CO2, with humidified atmosphere. Subsequently, the elastin was solubilized and extracted, for which the cells were washed twice with PBS (Sigma) and a solution was added to uncouple the cells (Cell Dissociation Solution, Sigma). The suspension of cells was transferred to centrifuge tubes, 1 M Oxalic Acid was added provided by the kit and they were incubated at 100° C. for 1 hour. Once the elastin became soluble, a calibration curve was prepared with the elastin provided with the kit. From that point, the samples and dilutions of the calibration curve were processed following the kit instructions to isolate and stain the elastin. Lastly, the dye was extracted and the absorbency reading was carried out at a wave length of 540 nm in a TECAN GENios spectrophotometric reader.

With “IL-1β: Interleukin-1β, positive control to activate the fibulin-5 and LOXL1 promoters and increase expression of the proteins [reference compound]”, the “Increase in the expression of the protein LOXL1 with regard to the negative control” value in the assay with LOXL1 (20 ng/mL) turned out to be 87.50%. Moreover, in assay [1], the “Increase in the activity of the human promoter of the FIBULIN 5 gene with regard to the negative control” value amounted to 80.40%. For the same substance, the “Increase in the activity of the human promoter of the LOXL1 gene with regard to the negative control” value in assay [2] came to 156.26%. Further, the “Increase in the expression of the protein fibulin-5 with regard to the negative control” value in the assay on fibulin-5 (20 ng/mL) stood at 42.07%. Moreover, the “Average increase of the expression of the proteins fibulin-5 and LOXL1” value with fibulin-5 (20 ng/ml) is recorded as 1.5 times.

As for “TGF-1β: TGF-1β (Peprotech), positive control in the elastin synthesis assay [reference compound]”, the “INCREASE IN ELASTIN SYNTHESIS” value in the assay on elastin is 35.6%.

With TGF-β, the “Increase in the expression of the protein LOXL1 with regard to the negative control” value in the assay with LOXL1 (5 ng/mL) was 45.93%. Also, the “Increase in the expression of the protein fibulin-5 with regard to the negative control” value with fibulin-5 (5 ng/mL) was determined as 147.72%. Further, in the assay with fibulin-5 (5 ng/ml), the “Average increase of the expression of the proteins fibulin-5 and LOXL1” value is on record as 2 times.

(Values after patent US9458194B2, “Compounds useful in the treatment and/or care of the skin and their cosmetic or pharmaceutical compositions” (Lubrizol Advanced Materials, Inc., priority 2013, dated 2016).)
